Results: patent US5817840A, “Water soluble taxol derivatives” (The Scripps Research Institute, priority 1997, dated 1998)
Entries after “also recorded” stand apart in the source; their conditions may differ.

Experiments:
[1] = test system: MCF-7 (breast carcinoma); assay: Cytotoxicity (sulphorhodamine B), cancer cell line, Table 1B; type: cell-based; conditions: Homo sapiens, MCF7, 72 h
[2] = test system: BT-549 (breast carcinoma); assay: as above; type: cell-based; conditions: Homo sapiens, BT-549, 72 h
[3] = test system: SIHA (cervix carcinoma); assay: as above; type: cell-based; conditions: Homo sapiens, SiHa, 72 h
[4] = test system: HT-29 (colon carcinoma); assay: as above; type: cell-based; conditions: Homo sapiens, HT-29, 72 h
[5] = test system: RPMI-7666 (normal human PBLs); assay: Cytotoxicity (sulphorhodamine B), normal cell line, Table 1B; type: cell-based; conditions: 72 h
[6] = test system: UCLA-P-3 (lung carcinoma); assay: Cytotoxicity (sulphorhodamine B), cancer cell line, Table 1B; type: cell-based; conditions: Homo sapiens, UCLA P-3, 72 h
[7] = test system: PC-3 (prostate carcinoma); assay: as above; type: cell-based; conditions: Homo sapiens, 72 h
[8] = test system: NHDF (normal human skin); assay: Cytotoxicity (sulphorhodamine B), normal cell line, Table 1B; type: cell-based; conditions: 72 h
[9] = test system: OVCAR-3 (ovarian carcinoma); assay: Cytotoxicity (sulphorhodamine B), cancer cell line, Table 1B; type: cell-based; conditions: Homo sapiens, OVCAR-3, 72 h
[10] = physchem
Procedure: The solubilities of the synthesized protaxols in D2 O were determined by 1H NMR spectroscopy.
The resulting mixture was centrifuged for 20 minutes and the supernatant saturated solution was analysed by ^1 H NMR spectroscopy using a Bruker AMX-400 instrument and methanol or pyridine as internal standard. The concentration of the compound was determined by comparing several signals with the CH3 signal of methanol or the NCH signal of pyridine.

[11] = cited from earlier work
[12] = test system: tubulin / microtubules; assay: Tubulin polymerization-depolymerization (CaCl2-induced depolymerization of microtubules); type: biochemical; conditions: 10^-6 M; 1.0 mg/mL tubulin; CaCl2 0.25 mM after 16 minutes; 37° C.; initial, no prior release
Procedure: Tubulin polymerization to microtubules is promoted by GTP, whereas CaCl2 causes depolymerization of microtubules back to tubulin (FIG. 3A). […] The designed protaxol 5 was tested for its ability to stabilize microtubules formed from tubulin via the action of GTP. […] These findings are in agreement with the previously reported loss of activity resulting from blocking the C-2' hydroxyl group.
Tubulin polynerization-depolymerization experiments with taxol and designed protaxol 5 are illustrated in FIG. 3. CaCl2 -promoted depolymerization of microtubules was suppressed by taxol and protaxol 5 (after taxol release).
These measurements may be conducted at 37° C. following a recently developed procedure described by R. Merlock and W. Wrasidlo (Analytical Biochemistry, 1993). In each case 1.0 mM GTP may be employed to promote initial polymerization of tubulin.
D: Tubulin (1.0 mg/mL) with protaxol 5 (10^-6 M) after release of taxol (as determined by HPLC, essentially quantitative conversion).

[13] = test system: HL-60 (promyel carcinoma); assay: Cytotoxicity (sulphorhodamine B), cancer cell line, Table 1B; type: cell-based; conditions: Homo sapiens, HL-60, 72 h
[14] = test system: Capan-1 (pancreatic); assay: as above; type: cell-based; conditions: Homo sapiens, CAPAN-1, 72 h
[15] = test system: CHO (normal human mammary); assay: Cytotoxicity (sulphorhodamine B), normal cell line, Table 1B; type: cell-based; conditions: Homo sapiens, 72 h
[16] = test system: BALB/c 3T3 (normal mouse embryo); assay: as above; type: cell-based; conditions: BALB/c3T3, 72 h
[17] = test system: H322 (lung carcinoma); assay: Cytotoxicity (sulphorhodamine B), cancer cell line, Table 1B; type: cell-based; conditions: NCI-H322, 72 h
[18] = test system: CHO (Chinese hamster ovary); assay: Cytotoxicity (sulphorhodamine B), normal cell line, Table 1B; type: cell-based; conditions: Cricetulus griseus, 72 h
[19] = test system: broad spectrum of cell lines; assay: Cytotoxicity against a broad spectrum of cell lines (overall); conditions: Table 1B
Procedure: The protaxols synthesized in this study were tested against a broad spectrum of cell lines ranging from the multiple-drug resistant ovarian (OVCAR-3) to lung (H-322) and leukemia (MOLT-4) cells in order to assess cytotoxicity, cell-type selectivity, and duration of action.
The cytotoxicities were determined using the sulphorhodamine B assay method (Skehan, P. et al. J. Nat. Canc. Inst. 82, 1107 (1990)).

[20] = test system: SK (melanoma); assay: Cytotoxicity (sulphorhodamine B), cancer cell line, Table 1B; type: cell-based; conditions: 72 h
[21] = test system: 786-0 (renal cell carcinoma); assay: as above; type: cell-based; conditions: Homo sapiens, 786-0, 72 h
[22] = test system: L1210 (mouse leukaemia); assay: as above; type: cell-based; conditions: L1210, 72 h
[23] = test system: NHDF (normal human dermal fibroblast); assay: Cytotoxicity, Example 8; type: cell-based; conditions: 72 h
Procedure: (§1) Tumor or normal cells were cultured in 96-well plates with the test compound in 200 μl of RPMI supplemented with 10% fetal bovine serum (Hyclone, Salt Lake City, Utah) at 37° C. in a humidified atmosphere containing 5% CO2 in air for 72 hours. Sulforhodamine B dissolved in 1% acetic acid was added, and the plates were incubated for 30 minutes at ambient temperature, washed with 1% acetic acid, and blotted. To the air-dried plates were added 100 μl of […] unbuffered TRIS base (pH 10.5) with shaking. The optical densities of the plates were measured with a microplate reader (Molecular Devices Thermomax) at 540 nm. The concentration of compound required to reduce the absorbance to 50% of control samples was recorded as IC50.
(§2) NHDF: Normal human dermal fibroblast (available from Clouelics Corp., San Diego, Calif.); HLF-1: Normal human diploid lung; W1-38; Normal human diploid lung; CHO; Chinese hamster ovary; SK-MEL-28: Melanoma; CAPAN-1: Pancreatic carcinoma; H322: lung carcinoma; MCF-7; Breast carcinoma; BT-549; Human breast ductal carcinoma; OVCAR-3: Human ovarian carcinoma; HT-29: Human adenocarcinoma, colon; SIHA: Human squamous carcinoma crvx; 786-0: Human perirenal cell adenocarci; PC-3: Human prostate adenocarcinoma; HL-60: Human promyelomic leukemia; MOLT-4: Human T-cell leukemia. All cell lines except NHDF are available from the American Tissue Culture Collection, Rockville, Md.

[24] = test system: PC-3 (human prostate adenocarcinoma); assay: Cytotoxicity, Example 8; type: cell-based; conditions: 72 h
Procedure: as §1, §2

[25] = test system: BT-549 (human breast ductal carcinoma); assay: Cytotoxicity, Example 8; type: cell-based; conditions: BT-549, 72 h
Procedure: as §1, §2

[26] = test system: HT-29 (human adenocarcinoma, colon); assay: Cytotoxicity, Example 8; type: cell-based; conditions: HT-29, 72 h
Procedure: as §1, §2

[27] = test system: H322 (lung carcinoma); assay: Cytotoxicity, Example 8; type: cell-based; conditions: NCI-H322, 72 h
Procedure: as §1, §2

[28] = test system: SK-MEL-28 (melanoma); assay: Cytotoxicity, Example 8; type: cell-based; conditions: Homo sapiens, SK-MEL-28, 72 h
Procedure: as §1, §2

[29] = test system: W1-38 (normal human diploid lung); assay: Cytotoxicity, Example 8; type: cell-based; conditions: W138, 72 h
Procedure: as §1, §2

[30] = test system: 786-0 (human perirenal cell adenocarci); assay: Cytotoxicity, Example 8; type: cell-based; conditions: 786-0, 72 h
Procedure: as §1, §2

[31] = test system: CAPAN-1 (pancreatic carcinoma); assay: Cytotoxicity, Example 8; type: cell-based; conditions: Homo sapiens, CAPAN-1, 72 h
Procedure: as §1, §2

[32] = test system: HLF-1 (normal human diploid lung); assay: Cytotoxicity, Example 8; type: cell-based; conditions: HLF1, 72 h
Procedure: as §1, §2

[33] = test system: MCF-7 (breast carcinoma); assay: Cytotoxicity, Example 8; type: cell-based; conditions: Homo sapiens, MCF7, 72 h
Procedure: as §1, §2

[34] = test system: S1HA (human squamous carcinoma crvx); assay: Cytotoxicity, Example 8; type: cell-based; conditions: 72 h
Procedure: as §1, §2

[35] = test system: CHO (Chinese hamster ovary); assay: Cytotoxicity, Example 8; type: cell-based; conditions: Cricetulus griseus, 72 h
Procedure: as §1, §2

[36] = test system: OVCAR-3 (human ovarian carcinoma); assay: Cytotoxicity, Example 8; type: cell-based; conditions: OVCAR-3, 72 h
Procedure: as §1, §2

[37] = test system: MOLT-4 (T-cell leukaemia); assay: Cytotoxicity (sulphorhodamine B), cancer cell line, Table 1B; type: cell-based; conditions: Homo sapiens, MOLT-4, 72 h

CC(=O)O[C@H]1C(=O)[C@@]2(C)[C@H]([C@H](OC(=O)c3ccccc3)[C@]3(O)C[C@H](OC(=O)[C@H](O)[C@@H](NC(=O)c4ccccc4)c4ccccc4)C(C)=C1C3(C)C)[C@]1(OC(C)=O)CO[C@@H]1C[C@@H]2O [Taxol]
IC50 [1]: < 10 µM
IC50 [2]: 0.001 µM
IC50 [3]: 10 µM
IC50 [4]: < 0.001 µM
IC50 [5]: 100 µM
IC50 [6]: < 0.001 µM
IC50 [7]: 1 µM
IC50 [8]: 1 µM
IC50 [9]: < 0.001 µM
Water solubility [10]: < 100 µg/mL
water solubility of taxol [11]: only slightly soluble in water; also recorded: essentially insoluble in water
prevention of CaCl2-induced depolymerization of microtubules [12]: stabilizes microtubules against CaCl2-induced depolymerization; also recorded: suppressed; also recorded: did not cause depolymerization
IC50 [13]: < 0.001 µM
IC50 [14]: < 0.001 µM
IC50 [15]: 100 µM
IC50 [16]: 1 µM
IC50 [17]: 0.001 µM
IC50 [18]: 100 µM
selectivity against cancer cells versus normal cells [19]: rather impressive selectivity
IC50 [20]: 10 µM
IC50 [21]: 0.1 µM
IC50 [22]: 1 µM
IC50 [23]: 208 µM
IC50 [24]: 69.1 µM
IC50 [25]: 44.6 µM
IC50 [26]: 0.098 µM
IC50 [27]: 122 µM
IC50 [28]: 100 µM
IC50 [29]: 60.6 µM
IC50 [30]: 0.184 µM
IC50 [31]: 0.098 µM
IC50 [32]: 63 µM
IC50 [33]: 64.4 µM
IC50 [34]: 1110 µM
IC50 [35]: 53.5 µM
IC50 [36]: 0.098 µM
IC50 [37]: < 0.001 µM
